Assay results taken from ChEMBL document CHEMBL5584333, “Evo312: An Evodiamine Analog and Novel PKCβI Inhibitor with Potent Antitumor Activity in Gemcitabine-Resistant Pancreatic Cancer” (J Med Chem, 2024).
Active and inactive are the calls of the source. The calls are words filed in the database; no cut-off is given here.

Tests used:
[1] = system: PANC-1; test: Cytotoxicity against human PANC-1 cells assessed as inhibition of cell growth incubated for 72 hrs by SRB assay; format: functional, cell-based; conditions: PANC-1, 72 h
[2] = Cytotoxicity against human MRC5 cells assessed as inhibition of cell growth incubated for 72 hrs by SRB assay; format: toxicity, cell-based
[3] = system: Gemcitabine-resistant PANC-1; test: Inhibition of p70S6K phosphorylation in human Gemcitabine-resistant PANC-1 cells at 160 nM incubated for 24 hrs by phospho-kinase array analysis; format: cell-based
[4] = Cytotoxicity against HPDE6c7 cells assessed as inhibition of cell growth incubated for 72 hrs by SRB assay; format: toxicity, cell-based; conditions: human
[5] = system: Gemcitabine-resistant PANC-1; test: Cytotoxicity against human Gemcitabine-resistant PANC-1 cells assessed as inhibition of cell growth incubated for 72 hrs by SRB assay; format: functional, cell-based; conditions: Gemcitabine-resistant PANC-1, 72 h
[6] = target: T1, Protein kinase C beta type (Homo sapiens, UniProt P05771); test: Inhibition of recombinant full length N-terminal GST-tagged human PKCbeta1 expressed in baculovirus infected Sf9 insect cells using ERMRPRKRQGSVRRRV as substrate incubated for 60 mins in presence of ATP by ADP-glo reagent based luminometric analysis
Target sequence in this assay (P05771 whole entry): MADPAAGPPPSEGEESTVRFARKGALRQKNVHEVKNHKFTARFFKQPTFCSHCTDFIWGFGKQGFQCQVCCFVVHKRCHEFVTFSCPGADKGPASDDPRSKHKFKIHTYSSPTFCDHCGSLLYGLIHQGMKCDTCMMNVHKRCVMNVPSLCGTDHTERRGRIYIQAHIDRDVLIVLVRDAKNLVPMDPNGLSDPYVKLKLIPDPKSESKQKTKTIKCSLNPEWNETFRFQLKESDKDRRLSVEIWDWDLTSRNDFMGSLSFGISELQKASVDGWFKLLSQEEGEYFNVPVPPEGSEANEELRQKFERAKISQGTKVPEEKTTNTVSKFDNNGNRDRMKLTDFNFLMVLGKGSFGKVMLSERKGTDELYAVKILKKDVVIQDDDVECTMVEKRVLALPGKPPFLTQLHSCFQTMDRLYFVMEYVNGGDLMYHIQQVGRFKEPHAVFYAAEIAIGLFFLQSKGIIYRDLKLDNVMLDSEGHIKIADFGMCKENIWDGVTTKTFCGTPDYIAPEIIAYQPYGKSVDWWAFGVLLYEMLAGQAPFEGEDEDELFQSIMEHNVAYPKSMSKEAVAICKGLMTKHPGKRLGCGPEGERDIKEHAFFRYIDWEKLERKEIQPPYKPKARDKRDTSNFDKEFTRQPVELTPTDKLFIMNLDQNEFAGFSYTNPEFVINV

[7] = target: T1, Protein kinase C beta type; test: Inhibition of PKCbeta1 in human Gemcitabine-resistant PANC-1 cells incubated for 24 hrs; format: cell-based; conditions: dose 40-200 nM
Target sequence in this assay (P05771 2-671 limits assumed): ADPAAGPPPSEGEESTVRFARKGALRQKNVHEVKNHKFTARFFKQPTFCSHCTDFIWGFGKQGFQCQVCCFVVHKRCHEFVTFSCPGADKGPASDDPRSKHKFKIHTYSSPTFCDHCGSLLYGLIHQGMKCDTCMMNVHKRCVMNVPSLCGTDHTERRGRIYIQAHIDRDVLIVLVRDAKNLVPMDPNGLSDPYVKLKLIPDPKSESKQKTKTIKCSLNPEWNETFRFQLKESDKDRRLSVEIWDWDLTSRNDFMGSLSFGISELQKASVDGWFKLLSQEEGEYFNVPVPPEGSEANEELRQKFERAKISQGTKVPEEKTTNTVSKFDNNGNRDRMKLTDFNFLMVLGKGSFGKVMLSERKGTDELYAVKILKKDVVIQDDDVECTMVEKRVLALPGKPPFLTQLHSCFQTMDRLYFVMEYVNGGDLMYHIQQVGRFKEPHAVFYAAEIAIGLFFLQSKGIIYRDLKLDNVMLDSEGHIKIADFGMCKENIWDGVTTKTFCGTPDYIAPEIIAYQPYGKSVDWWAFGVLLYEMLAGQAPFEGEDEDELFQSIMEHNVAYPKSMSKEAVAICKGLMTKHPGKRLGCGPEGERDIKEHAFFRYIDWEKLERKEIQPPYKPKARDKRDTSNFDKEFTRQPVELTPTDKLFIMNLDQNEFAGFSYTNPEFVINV

[8] = system: Gemcitabine-resistant PANC-1; test: Downregulation of PKCbeta1 expression in human Gemcitabine-resistant PANC-1 cells at 40 to 160 nM incubated for 24 hrs by Western blotting; format: functional, cell-based; conditions: dose 40-160 nM
[9] = system: Gemcitabine-resistant PANC-1; test: Downregulation of PKCdelta expression in human Gemcitabine-resistant PANC-1 cells at 40 to 160 nM incubated for 24 hrs by Western blotting; format: functional, cell-based; conditions: dose 40-160 nM
[10] = target: Proline-rich AKT1 substrate 1 (Homo sapiens) (UniProt Q96B36); test: Inhibition of PRAS40 phosphorylation in human Gemcitabine-resistant PANC-1 cells at 160 nM incubated for 24 hrs by phospho-kinase array analysis; format: cell-based
[11] = system: Gemcitabine-resistant PANC-1; test: Downregulation of p-Akt expression in human Gemcitabine-resistant PANC-1 cells at 40 to 160 nM incubated for 24 hrs by Western blotting; format: functional, cell-based; conditions: dose 40-160 nM
[12] = system: Gemcitabine-resistant PANC-1; test: Effect on Akt expression in human Gemcitabine-resistant PANC-1 cells at 40 to 160 nM by Western blot analysis; format: functional, cell-based; conditions: dose 40-160 nM
[13] = system: Gemcitabine-resistant PANC-1; test: Effect on GSK3beta expression in human Gemcitabine-resistant PANC-1 cells at 40 to 160 nM by Western blot analysis; format: functional, cell-based; conditions: dose 40-160 nM
[14] = system: Gemcitabine-resistant PANC-1; test: Effect on p70S6K expression in human Gemcitabine-resistant PANC-1 cells at 40 to 160 nM by Western blot analysis; format: functional, cell-based; conditions: dose 40-160 nM
[15] = system: Gemcitabine-resistant PANC-1; test: Effect on PRAS40 expression in human Gemcitabine-resistant PANC-1 cells at 40 to 160 nM by Western blot analysis; format: functional, cell-based; conditions: dose 40-160 nM
[16] = system: Gemcitabine-resistant PANC-1; test: Cell cycle distribution in human Gemcitabine-resistant PANC-1 cells assessed as sub-G1 phase cells at 40 nM incubated for 24 hrs by RNase/PI staining based flow cytometric analysis (reference value: 0.30 %); format: functional
[17] = system: Gemcitabine-resistant PANC-1; test: Cell cycle distribution in human Gemcitabine-resistant PANC-1 cells assessed as sub-G1 phase cells at 120 nM incubated for 24 hrs by RNase/PI staining based flow cytometric analysis (reference value: 0.30 %); format: functional
[18] = system: Gemcitabine-resistant PANC-1; test: Cell cycle distribution in human Gemcitabine-resistant PANC-1 cells assessed as G0-G1 phase cells at 40 nM incubated for 24 hrs by RNase/PI staining based flow cytometric analysis (reference value: 45.21 %); format: functional
[19] = system: Gemcitabine-resistant PANC-1; test: Cell cycle distribution in human Gemcitabine-resistant PANC-1 cells assessed as G0-G1 phase cells at 80 nM incubated for 24 hrs by RNase/PI staining based flow cytometric analysis (reference value: 45.21 %); format: functional
[20] = system: Gemcitabine-resistant PANC-1; test: Cell cycle distribution in human Gemcitabine-resistant PANC-1 cells assessed as S phase cells at 40 nM incubated for 24 hrs by RNase/PI staining based flow cytometric analysis (reference value: 17.32 %); format: functional
[21] = system: Gemcitabine-resistant PANC-1; test: Cell cycle distribution in human Gemcitabine-resistant PANC-1 cells assessed as S phase cells at 80 nM incubated for 24 hrs by RNase/PI staining based flow cytometric analysis (reference value: 17.32 %); format: functional
[22] = system: Gemcitabine-resistant PANC-1; test: Cell cycle distribution in human Gemcitabine-resistant PANC-1 cells assessed as G2/M phase cells at 40 nM incubated for 24 hrs by RNase/PI staining based flow cytometric analysis (reference value: 37.53 %); format: functional
[23] = system: Gemcitabine-resistant PANC-1; test: Cell cycle distribution in human Gemcitabine-resistant PANC-1 cells assessed as G2/M phase cells at 80 nM incubated for 24 hrs by RNase/PI staining based flow cytometric analysis (reference value: 37.53 %); format: functional
[24] = system: Gemcitabine-resistant PANC-1; test: Cell cycle distribution in human Gemcitabine-resistant PANC-1 cells assessed as G2/M phase cells at 160 nM incubated for 24 hrs by RNase/PI staining based flow cytometric analysis (reference value: 37.53 %); format: functional
[25] = system: Gemcitabine-resistant PANC-1; test: Induction of cell cycle arrest in human Gemcitabine-resistant PANC-1 cells assessed as downregulation of CDK2 protein expression level at 40 to 160 nM incubated for 24 hrs by Western blot analysis; format: functional, cell-based; conditions: dose 40-160 nM
[26] = system: Gemcitabine-resistant PANC-1; test: Induction of cell cycle arrest in human Gemcitabine-resistant PANC-1 cells assessed as downregulation of cyclin D1 protein expression level at 40 to 160 nM incubated for 24 hrs by Western blot analysis; format: functional, cell-based; conditions: dose 40-160 nM
[27] = system: Gemcitabine-resistant PANC-1; test: Induction of cell cycle arrest in human Gemcitabine-resistant PANC-1 cells assessed as upregulation of cyclin B1 protein expression level at 40 to 160 nM incubated for 24 hrs by Western blot analysis; format: functional, cell-based; conditions: dose 40-160 nM
[28] = system: Gemcitabine-resistant PANC-1; test: Induction of cell cycle arrest in human Gemcitabine-resistant PANC-1 cells assessed as upregulation of p27 protein expression level at 40 to 160 nM incubated for 24 hrs by Western blot analysis; format: functional, cell-based; conditions: dose 40-160 nM
[29] = system: Gemcitabine-resistant PANC-1; test: Induction of apoptosis in human Gemcitabine-resistant PANC-1 cells assessed as total cell death at 40 nM incubated for 48 hrs by Annexin V-FITC/PI staining based flow cytometric analysis relative to control; format: functional
[30] = system: Gemcitabine-resistant PANC-1; test: Induction of apoptosis in human Gemcitabine-resistant PANC-1 cells assessed as upregulation of cleaved PARP level at 160 nM incubated for 48 hrs by Western blot analysis; format: functional, cell-based
[31] = system: Gemcitabine-resistant PANC-1; test: Induction of apoptosis in human Gemcitabine-resistant PANC-1 cells assessed as upregulation of cleaved caspase-9 level at 160 nM incubated for 48 hrs by Western blot analysis; format: functional, cell-based
[32] = system: Gemcitabine-resistant PANC-1; test: Induction of apoptosis in human Gemcitabine-resistant PANC-1 cells assessed as upregulation of cleaved caspase-8 level at 160 nM incubated for 48 hrs by Western blot analysis; format: functional, cell-based
[33] = Toxicity in male BALB/c nude mouse at 40 mg/kg, ip; format: organism-based; conditions: in vivo
[34] = Toxicity in male BALB/c nude mouse assessed as animal death at 40 mg/kg, ip; format: organism-based; conditions: in vivo
[35] = Toxicity in male BALB/c nude mouse xenografted with human Gemcitabine-resistant PANC-1 cells assessed as body weight change at 10 mg/kg, ip administered three times in a week for 20 days; format: organism-based; conditions: in vivo, 480 h, time 20 day
[36] = system: Gemcitabine-resistant PANC-1; test: Antitumor activity against human Gemcitabine-resistant PANC-1 cells xenografted in male BALB/c nude mouse assessed as reduction in tumor weight at 10 mg/kg, ip administered three times in a week for 20 days relative to control; format: functional; parameters: scale not given: the % may be the effect or the level left; conditions: time 20 day

In the case of `CC(=O)Oc1ccc2[nH]c3c(c2c1)CCN1C(=O)c2ccccc2N(C)[C@H]31`, the IC50 [1] is reported as at most 80 nM, the IC50 at 72 h [2] is reported as over 50000 nM and the inhibition [3] is reported as “Active”. It also gave an IC50 at 72 h [4] of 2950 nM, an IC50 [5] of 70 nM and an IC50 [6] of 117 nM. For the same molecule, the inhibition [7] was “Dose-Dependent Effect”, the Activity [8] was “Active” and the Activity [9] was “inactive”. For the same molecule, the inhibition [10] was “Active”, the Activity [11] was “Active” and the Activity [12] was “inactive”. The Activity [13] was “inactive”, the Activity [14] was “inactive” and the Activity [15] was “inactive”. The Activity [16] was 0.34%, the Activity [17] was 1.6% and the Activity [18] was 42.91%. It also gave an Activity [19] of 34.14%, an Activity [20] of 17.71% and an Activity [21] of 15.94%. It also gave an Activity [22] of 39.38%, an Activity [23] of 48.98% and an Activity [24] of 58.51%. For the same molecule, the Activity [25] was “Active”, the Activity [26] was “Active” and the Activity [27] was “Active”. For the same molecule, the Activity [28] was “Active”, the Activity [29] was 15.83% and the Activity [30] was “Active”. For the same molecule, the Activity [31] was “Active”, the Activity [32] was “Active” and the Activity [33] was “Non-Toxic”. The Activity [34] was “Non-Toxic”, the Activity [35] was “Non-Toxic” and the Activity [36] was 44.89%.
